Measurements: patent US4472376A, “Pharmaceutical insertion compositions and a process for producing the same” (Toko Yakuhin Kogyo Kabushiki Kaisha, priority 1976, dated 1984)

Legend:
[1] = Concentration of 5-fluorouracil in the serum after insertion into the rectum of a rabbit; format: in vivo; details: insertion composition of Example 16, rabbit; 3 hours after the insertion
Protocol: When the pharmaceutical insertion composition of the present invention is inserted into the rectum, its concentration in the serum is as follows:
A pharmaceutical insertion composition obtained in Example 16 is inserted into the rectum of a rabbit having the body weight of 3.2 kg at the rate of 20 mg of 5-fluoroaracil per 1 kg of the body weight, and the concentration of 5-fluorouracil in the serum after the insertion is measured to show the following results: […]

[2] = 5-fluorouracil blood concentration / absorption by other dosage forms, compared with effective concentration in blood; format: in vivo
Excerpt: Thus, it has been clearly known that the dosage in the form of the insertion composition of the present invention is quite excellent.

[3] = known value; cited from earlier work

absorption from conventional suppository or liquid form ([2]; conventional suppository or liquid): barely absorbed
SMILES: O=c1[nH]cc(F)c(=O)[nH]1 [5-fluorouracil]
maintenance of effective concentration in blood after rectal insertion of the gel composition [1]: maintains sufficient effective concentration in blood
concentration in blood after injection into vein ([2]; injected into vein, 30 minutes later): less than the effective blood concentration
effective concentration in blood [3]: about 0.08 μg/ml
